# Key:
# [1] = biological target: T1, DCAF15-RBM39 ternary complex (Homo sapiens, UniProt Q14498+Q66K64); test: Compound-induced DCAF15-RBM39 ternary complex formation, AlphaLISA; format: biochemical; conditions: AlphaLISA, His-tagged DCAF15 complex and biotin-carrying RBM39; read-out: Ternary-RBM39 (RRM2) EC50
# T1 construct: (RRM2)
# Experimental: Compound-induced DCAF15-RBM39 ternary complex formation was monitored using AlphaLISA® assays (Perkin Elmer, Waltham, MA). […] 9.8 ul of this protein mixture was then mixed with the compounds in the assay plate and incubated for one hour at room temperature. Reaction mixtures with no compounds added were included as negative controls, while a His-tagged and biotinylated GST protein was included to track general assay performance. […] The beads were then added to the assay plate sequentially with incubation at room temperature for 1-2 hours after each addition.
# [2] = biological target: DCAF15 (Homo sapiens, UniProt Q66K64); test: Binary interaction between compounds and DCAF15, HTRF competition assay; format: binding; conditions: HTRF competition with Alexa Fluor 647 tracer, His-tagged DCAF15 complex; read-out: DCAF15 IC50
# Experimental: DCAF15 interactions with test compounds were monitored using HTRF competition assays (Cisbio, Bedford, MA). […] These two solutions were mixed and incubated for 15 min at room temperature. 9.8 ul of the tracer solution and 10 ul of the DCAF15/mAb Anti-6His-Eu cryptate Gold mixture were added sequentially to each well in the assay plate. Reaction mixtures with no DCAF15 added were included as […] controls. […] Binding was estimated based on ratiometric analysis and titration curves were generated in GraphPad Prism (7.00, GraphPad, La Jolla, CA).
# Sequence of DCAF15 (Q66K64 whole entry): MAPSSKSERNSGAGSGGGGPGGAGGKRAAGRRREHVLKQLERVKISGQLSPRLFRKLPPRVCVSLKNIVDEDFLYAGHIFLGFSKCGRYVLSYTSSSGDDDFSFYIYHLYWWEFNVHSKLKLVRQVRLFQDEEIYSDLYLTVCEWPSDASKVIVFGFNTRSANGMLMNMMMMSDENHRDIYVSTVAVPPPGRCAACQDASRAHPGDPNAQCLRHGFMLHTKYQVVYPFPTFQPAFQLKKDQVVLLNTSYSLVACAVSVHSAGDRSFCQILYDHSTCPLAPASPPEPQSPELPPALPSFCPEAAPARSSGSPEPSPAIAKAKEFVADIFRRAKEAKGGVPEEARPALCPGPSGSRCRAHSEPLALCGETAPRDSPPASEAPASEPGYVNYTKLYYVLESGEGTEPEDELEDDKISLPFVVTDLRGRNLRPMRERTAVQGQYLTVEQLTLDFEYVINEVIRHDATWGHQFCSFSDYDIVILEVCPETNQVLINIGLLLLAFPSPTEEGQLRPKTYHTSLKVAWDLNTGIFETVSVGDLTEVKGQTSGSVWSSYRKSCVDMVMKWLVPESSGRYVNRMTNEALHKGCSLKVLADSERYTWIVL
# Sequence of DCAF15 (Q16531 whole entry partner): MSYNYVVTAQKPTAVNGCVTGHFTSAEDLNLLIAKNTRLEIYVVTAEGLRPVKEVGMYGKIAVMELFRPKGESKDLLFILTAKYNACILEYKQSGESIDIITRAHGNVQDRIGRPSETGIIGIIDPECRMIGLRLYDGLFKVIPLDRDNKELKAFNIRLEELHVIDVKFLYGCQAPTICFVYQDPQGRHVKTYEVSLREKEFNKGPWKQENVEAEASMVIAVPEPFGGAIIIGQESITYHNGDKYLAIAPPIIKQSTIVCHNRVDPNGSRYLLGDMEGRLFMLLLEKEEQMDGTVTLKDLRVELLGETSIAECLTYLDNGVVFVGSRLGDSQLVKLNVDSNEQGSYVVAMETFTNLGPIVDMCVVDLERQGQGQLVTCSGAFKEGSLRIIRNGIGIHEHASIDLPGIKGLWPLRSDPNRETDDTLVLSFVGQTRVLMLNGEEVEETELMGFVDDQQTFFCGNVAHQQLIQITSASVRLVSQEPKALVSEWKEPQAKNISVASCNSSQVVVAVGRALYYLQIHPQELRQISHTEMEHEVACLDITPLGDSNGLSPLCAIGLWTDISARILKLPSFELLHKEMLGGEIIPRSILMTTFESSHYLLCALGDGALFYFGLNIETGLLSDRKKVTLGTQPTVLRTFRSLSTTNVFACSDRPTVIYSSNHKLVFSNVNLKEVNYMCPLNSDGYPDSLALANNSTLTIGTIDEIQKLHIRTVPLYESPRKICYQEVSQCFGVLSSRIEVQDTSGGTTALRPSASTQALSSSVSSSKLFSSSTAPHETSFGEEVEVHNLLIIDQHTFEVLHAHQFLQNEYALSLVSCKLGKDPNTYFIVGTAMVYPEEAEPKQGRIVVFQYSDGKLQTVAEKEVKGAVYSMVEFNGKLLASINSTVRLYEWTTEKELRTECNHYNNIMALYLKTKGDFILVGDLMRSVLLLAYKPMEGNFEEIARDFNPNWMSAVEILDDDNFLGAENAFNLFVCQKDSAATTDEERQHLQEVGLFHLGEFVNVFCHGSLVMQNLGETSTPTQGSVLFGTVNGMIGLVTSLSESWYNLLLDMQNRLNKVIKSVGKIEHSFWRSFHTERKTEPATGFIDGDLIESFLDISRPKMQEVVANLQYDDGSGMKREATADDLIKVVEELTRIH
# T1 sequence (Q66K64 whole entry): as the sequence (Q66K64 whole entry) above
# T1 sequence (Q14498 250-328 limits assumed): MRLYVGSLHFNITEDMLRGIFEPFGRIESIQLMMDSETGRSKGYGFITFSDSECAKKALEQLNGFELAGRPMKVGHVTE
# T1 sequence (Q16531 whole entry partner): as the sequence (Q16531 whole entry partner) above
Structure (SMILES),EC50 [1] [µM],IC50 [2] [µM]
"O=S(=O)(NCC1CCN(CCCc2ccccc2)CC1)c1ccc(S(=O)(=O)Nc2ccc(Cl)c3c(Cl)c[nH]c23)cc1 [Compound 10, N^1-(3,4-dichloro-1H-indol-7-yl)-N^4-((1-(3-phenylpropyl)piperidin-4-yl)methyl)benzene-1,4-disulfonamide]",< 1,< 5
"CN(C)C(=O)CC(NS(=O)(=O)c1ccc(S(=O)(=O)Nc2ccc(Cl)c3c(Cl)c[nH]c23)cc1)c1ccccc1 (stereo not drawn) [Compound 11, 3-((4-(N-(3,4-dichloro-1H-indol-7-yl)sulfamoyl)phenyl)sulfonamido)-N,N-dimethyl-3-phenylpropanamide]",< 20,< 5
"Cc1cc(CNS(=O)(=O)c2ccc(S(=O)(=O)Nc3ccc(Cl)c4c(Cl)c[nH]c34)cc2)nn1C [Compound 15, N^1-(3,4-dichloro-1H-indol-7-y1)-N^4-((1,5-dimethyl-1H-pyrazol-3-yl)methyl)benzene-1,4-disulfonamide]",< 20,< 5
"COc1cccc(Oc2ccc(CNS(=O)(=O)c3ccc(S(=O)(=O)Nc4ccc(Cl)c5c(Cl)c[nH]c45)cc3)cn2)c1 [Compound 17, N^1-(3,4-dichloro-1H-indol-7-yl)-N^4-((6-(3-methoxyphenoxy)pyridin-3-yl)methyl)benzene-1,4-disulfonamide]",< 20,< 20
"CN1CC(CCNS(=O)(=O)c2ccc(S(=O)(=O)Nc3ccc(Cl)c4c(Cl)c[nH]c34)cc2)C1 [Compound 22, N^1-(3,4-dichloro-1H-indol-7-y1)-N^4-(2-(1-methylazetidin-3-yl)ethyl)benzene-1,4-disulfonamide]",< 1,< 5

# Other lines, results leading:
EC50 [1] [µM],IC50 [2] [µM],Structure (SMILES)
< 20,< 20,"CC(C)C(=O)Nc1cccc(CNS(=O)(=O)c2ccc(S(=O)(=O)Nc3ccc(Cl)c4c(Cl)c[nH]c34)cc2)c1 [Compound 13, N-(3-(((4-(N-(3,4-dichloro-1H-indol-7-yl)sulfamoyl)phenyl)sulfonamido)methyl)phenyl) isobutyramide]"
< 20,< 20,"CCC(NS(=O)(=O)c1ccc(S(=O)(=O)Nc2ccc(Cl)c3c(Cl)c[nH]c23)cc1)c1ccc2c(c1)OCCO2 (stereo not drawn) [Compound 14, N1-(3,4-dichloro-1H-indol-7-yl)-N^4-(1-(2,3-dihydrobenzo[b][1, 4]dioxin-6-yl)propyl)benzene-1,4-disulfonamide]"
< 20,< 5,"Cc1ccnc(CNS(=O)(=O)c2ccc(S(=O)(=O)Nc3ccc(Cl)c4c(Cl)c[nH]c34)cc2)c1 [Compound 16, N^1-(3,4-dichloro-1H-indol-7-yl)-N^4-((4-methylpyridin-2-yl)methyl)benzene-1,4-disulfonamide]"
< 5,< 20,"Cc1ccnc(C(NS(=O)(=O)c2ccc(S(=O)(=O)Nc3ccc(Cl)c4c(Cl)c[nH]c34)cc2)C2CC2)c1 (stereo not drawn) [Compound 18, N^1-(cyclopropyl(4-methylpyridin-2-yl)methyl)-N^4-(3,4-dichloro-1H-indol-7-yl)benzene-1,4-disulfonamide]"
< 1,< 5,"Cc1cnc(CNS(=O)(=O)c2ccc(S(=O)(=O)Nc3ccc(Cl)c4c(Cl)c[nH]c34)cc2)cn1 [Compound 19, N^1-(3,4-dichloro-1H-indol-7-yl)-N4_ ((5-methylpyrazin-2-yl)methyl)benzene-1,4-disulfonamide]"
< 5,< 5,"CCc1nc(CN(C)S(=O)(=O)c2ccc(S(=O)(=O)Nc3ccc(Cl)c4c(Cl)c[nH]c34)cc2)no1 [Compound 20, N^1-(3,4-dichloro-1H-indol-7-yl)-N^4-((5-ethyl-1,2,4-oxadiazol-3-yl)methyl)-N4. methylbenzene-1,4-disulfonamide]"
< 5,< 20,"CN(C)C(=O)c1ccc(CCNS(=O)(=O)c2ccc(S(=O)(=O)Nc3ccc(Cl)c4c(Cl)c[nH]c34)cc2)cc1 [Compound 23, 4-(2-((4-(N-(3,4-dichloro-1H-indol-7-yl)sulfamoyl)pheny 1)sulfonamido)ethyl)-N,N-dimethylbenzamide]"

# — patent US20240190821A1, “SULFONAMIDE SUBSTITUTED N-(1H-INDOL-7-YL)BENZENESULFONAMIDES AND USES THEREOF” (Triana Biomedicines, Inc., priority 2021, published 2024)
